Measurements taken from ChEMBL document CHEMBL5236635, “Structure-Based Drug Design and Synthesis of Novel N-Aryl-2,4-bithiazole-2-amine CYP1B1-Selective Inhibitors in Overcoming Taxol Resistance in A549 Cells” (J Med Chem, 2022).
The source made the active and inactive calls. The rule behind the calls is not given here.

Assays:
[1] = tested on: NCI-H460; experiment: Upregulation of DMBA-induced CYP1B1 expression level in human NCI-H460 cells at 5 uM incubated for 24 hrs; assay type: functional, cell-based
[2] = tested on: A549; experiment: Inhibition of DMBA-induced CYP1B1 overexpression in human A549 cells assessed as increase in N-cadherin level incubated for 24 hrs by densitometry analysis; assay type: functional, cell-based; details: dose 5.0 µM
[3] = tested on: A549; experiment: Inhibition of DMBA-induced CYP1B1 overexpression in human A549 cells assessed as decrease in E-cadherin level incubated for 24 hrs by densitometry analysis; assay type: functional, cell-based; details: dose 5.0 µM
[4] = tested on: A549; experiment: Inhibition of DMBA-induced CYP1B1 overexpression in human A549 cells assessed as effect on MMP-9 level at 5 uM incubated for 24 hrs by densitometry analysis; assay type: functional, cell-based
[5] = tested on: A549; experiment: Antiproliferative activity against human taxol resistance human A549 cells assessed as reduction in cell viability incubated for 24 hrs by MTT assay; assay type: functional, cell-based; details: dose 5.0 µM
[6] = tested on: A549; experiment: Inhibition of DMBA-induced CYP1B1 expression level in human A549 cells at 5 uM incubated for 24 hrs; assay type: functional, cell-based
[7] = target: Focal adhesion kinase 1 (Homo sapiens) (UniProt Q05397); experiment: Inhibition of FAK pathway in human A549/Taxol cells assessed as decrease in phosphorylated FAK level at 5 uM incubated for 24 hrs; assay type: cell-based
[8] = tested on: A549; experiment: Inhibition of DMBA-induced CYP1B1 overexpression in human A549 cells assessed as increase in SRC level at 5 uM incubated for 24 hrs by densitometry analysis; assay type: functional, cell-based
[9] = tested on: A549; experiment: Inhibition of DMBA-induced CYP1B1 overexpression in human A549 cells assessed as increase in SRC level incubated for 24 hrs by densitometry analysis; assay type: functional, cell-based; details: dose 5.0 µM
[10] = tested on: A549/TR; experiment: Reversal of taxol resistance human A549/Taxol cells assessed as increase in sensitivity incubated for 72 hrs by MTT assay; assay type: functional, cell-based
[11] = target: T1, Mitogen-activated protein kinase; ERK1/ERK2 (Homo sapiens) (UniProt P27361+P28482); experiment: Inhibition of ERK1/2 pathway in human A549/Taxol cells assessed as decrease in phosphorylated ERK1/2 level at 5 uM incubated for 24 hrs; assay type: cell-based
[12] = tested on: A549; experiment: Inhibition of DMBA-induced CYP1B1 overexpression in human A549 cells assessed as increase in FAK level incubated for 24 hrs by densitometry analysis; assay type: functional, cell-based; details: dose 5.0 µM
[13] = tested on: A549; experiment: Inhibition of DMBA-induced CYP1B1 overexpression in human A549 cells assessed as effect on Snail level at 5 uM incubated for 24 hrs by densitometry analysis; assay type: functional, cell-based
[14] = tested on: NCI-H460; experiment: Inhibition of DMBA-induced CYP1B1 overexpression in human NCI-H460 cells assessed as effect on E-cadherin level at 5 uM incubated for 24 hrs by densitometry analysis; assay type: functional, cell-based
[15] = tested on: NCI-H460; experiment: Inhibition of DMBA-induced CYP1B1 overexpression in human NCI-H460 cells assessed as effect on MMP-9 level at 5 uM incubated for 24 hrs by densitometry analysis; assay type: functional, cell-based
[16] = tested on: A549/TR; experiment: Reversal of taxol resistance in human A549/Taxol cells assessed as suppression of P-gp expression level at 5 uM incubated for 20 mins by multimode plate reader analysis; assay type: functional, cell-based
[17] = tested on: NCI-H460; experiment: Inhibition of cell invasion in DMBA-induced human NCI-H460 cells at 5 uM by optical microscopic analysis; assay type: functional, cell-based
[18] = tested on: A549; experiment: Inhibition of DMBA-induced cell migration in human A549 cells incubated for 48 hrs by inverted microscopic analysis; assay type: functional, cell-based; details: dose 5.0 µM
[19] = target: Proto-oncogene tyrosine-protein kinase Src (Homo sapiens) (UniProt P12931); experiment: Inhibition of SRC pathway in human A549/Taxol cells assessed as decrease in phosphorylated FAK level at 5 uM incubated for 24 hrs; assay type: cell-based
[20] = tested on: NCI-H460; experiment: Inhibition of DMBA-induced CYP1B1 overexpression in human NCI-H460 cells assessed as effect on Snail level at 5 uM incubated for 24 hrs by densitometry analysis; assay type: functional, cell-based
[21] = tested on: NCI-H460; experiment: Inhibition of DMBA-induced AKT overexpression in human taxol resistance NCI-H460 cells incubated for 24 hrs; assay type: functional, cell-based; details: dose 5.0 µM
[22] = tested on: A549/TR; experiment: Synergistic antiproliferative activity against human A549/Taxol cells assessed as increase in taxol by measuring combination index at 15 uM incubated for 72 hrs in presence of 0.50 uM taxol by MTT assay; assay type: functional
[23] = tested on: A549/TR; experiment: Synergistic antiproliferative activity against human A549/Taxol cells assessed as increase in taxol by measuring combination index at 30 uM incubated for 72 hrs in presence of 0.13 uM taxol by MTT assay; assay type: functional
[24] = tested on: A549/TR; experiment: Synergistic antiproliferative activity against human A549/Taxol cells assessed as increase in taxol by measuring combination index at 3.75 uM incubated for 72 hrs in presence of 0.50 uM taxol by MTT assay; assay type: functional
[25] = target: T1, Mitogen-activated protein kinase; ERK1/ERK2 (Homo sapiens); experiment: Inhibition of ERK1/2 pathway in human A549/Taxol cells assessed as decrease in phosphorylated ERK1/2 level at 2.5 to 5 uM incubated for 24 hrs; assay type: cell-based; details: dose 2.5-5 µM
[26] = tested on: A549/TR; experiment: Reversal of taxol resistance in human A549/Taxol cells assessed as increase in Rho123 accumulation at 2.5 to 10 uM incubated for 20 mins by multimode plate reader analysis; assay type: functional, cell-based; details: dose 2.5-10 µM
[27] = tested on: A549/TR; experiment: Synergistic antiproliferative activity against human A549/Taxol cells assessed as increase in taxol by measuring combination index at 15 uM incubated for 72 hrs in presence of 0.25 uM taxol by MTT assay; assay type: functional
[28] = tested on: A549/TR; experiment: Synergistic antiproliferative activity against human A549/Taxol cells assessed as increase in taxol by measuring combination index at 7.50 uM incubated for 72 hrs in presence of 0.06 uM taxol by MTT assay; assay type: functional; details: dose 7.5 µM
[29] = tested on: A549/TR; experiment: Synergistic antiproliferative activity against human A549/Taxol cells assessed as inhibition of cell growth at 3.75 to 30 uM incubated for 72 hrs in presence of taxol by MTT assay; assay type: functional; parameters: scale not given: the % may be the effect or the level left; details: dose 3.75-30 µM
[30] = tested on: A549/TR; experiment: Reversal of taxol resistance human A549/Taxol cells assessed as increase in sensitivity at 5 uM incubated for 72 hrs by MTT assay; assay type: functional, cell-based
[31] = tested on: A549/TR; experiment: Synergistic antiproliferative activity against human A549/Taxol cells assessed as increase in taxol by measuring combination index at 30 uM incubated for 72 hrs in presence of 0.06 uM taxol by MTT assay; assay type: functional
[32] = tested on: A549/TR; experiment: Synergistic antiproliferative activity against human A549/Taxol cells assessed as increase in taxol by measuring combination index at 15 uM incubated for 72 hrs in presence of 0.06 uM taxol by MTT assay; assay type: functional
[33] = tested on: A549/TR; experiment: Synergistic antiproliferative activity against human A549/Taxol cells assessed as increase in taxol by measuring combination index at 7.50 uM incubated for 72 hrs in presence of 0.13 uM taxol by MTT assay; assay type: functional; details: dose 7.5 µM
[34] = tested on: A549/TR; experiment: Synergistic antiproliferative activity against human A549/Taxol cells assessed as increase in taxol by measuring combination index at 15 uM incubated for 72 hrs in presence of 1 uM taxol by MTT assay; assay type: functional
[35] = tested on: A549/TR; experiment: Inhibition of cell migration in human A549/Taxol cells incubated for 36 hrs; assay type: functional, cell-based; details: dose 2.5-10 µM
[36] = tested on: A549/TR; experiment: Inhibition of cell invasion in human A549/Taxol cells at 2.5 to 10 uM incubated for 18 hrs by optical microscopic analysis; assay type: functional, cell-based; details: dose 2.5-10 µM
[37] = target: Focal adhesion kinase 1 (Homo sapiens) (UniProt Q05397); experiment: Inhibition of FAK pathway in human A549/Taxol cells assessed as decrease in phosphorylated FAK level at 2.5 to 5 uM incubated for 24 hrs; assay type: cell-based; details: dose 2.5-5 µM

T1 sequence (P27361 whole entry, looked up): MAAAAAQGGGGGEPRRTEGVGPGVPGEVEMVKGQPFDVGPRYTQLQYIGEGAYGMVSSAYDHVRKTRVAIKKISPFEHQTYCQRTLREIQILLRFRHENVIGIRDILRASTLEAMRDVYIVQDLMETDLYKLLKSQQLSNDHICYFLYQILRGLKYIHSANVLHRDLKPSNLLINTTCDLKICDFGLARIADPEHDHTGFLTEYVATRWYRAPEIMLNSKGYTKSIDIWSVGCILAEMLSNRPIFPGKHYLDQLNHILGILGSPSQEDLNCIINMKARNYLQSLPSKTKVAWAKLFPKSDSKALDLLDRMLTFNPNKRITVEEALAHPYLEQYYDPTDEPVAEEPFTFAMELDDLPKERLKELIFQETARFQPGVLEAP
T1 sequence (P28482 whole entry, looked up): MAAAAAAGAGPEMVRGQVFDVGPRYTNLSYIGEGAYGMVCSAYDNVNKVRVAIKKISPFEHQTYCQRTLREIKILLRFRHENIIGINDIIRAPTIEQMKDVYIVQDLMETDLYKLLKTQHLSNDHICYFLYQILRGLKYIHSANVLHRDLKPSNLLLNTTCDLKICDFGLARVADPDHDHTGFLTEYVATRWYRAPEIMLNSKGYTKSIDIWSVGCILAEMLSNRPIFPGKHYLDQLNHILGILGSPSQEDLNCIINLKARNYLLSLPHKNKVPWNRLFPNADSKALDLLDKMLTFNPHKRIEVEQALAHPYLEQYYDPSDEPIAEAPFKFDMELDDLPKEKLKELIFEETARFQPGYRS
Sequence of Focal adhesion kinase 1 (Homo sapiens) (Q05397 2-1052 limits assumed): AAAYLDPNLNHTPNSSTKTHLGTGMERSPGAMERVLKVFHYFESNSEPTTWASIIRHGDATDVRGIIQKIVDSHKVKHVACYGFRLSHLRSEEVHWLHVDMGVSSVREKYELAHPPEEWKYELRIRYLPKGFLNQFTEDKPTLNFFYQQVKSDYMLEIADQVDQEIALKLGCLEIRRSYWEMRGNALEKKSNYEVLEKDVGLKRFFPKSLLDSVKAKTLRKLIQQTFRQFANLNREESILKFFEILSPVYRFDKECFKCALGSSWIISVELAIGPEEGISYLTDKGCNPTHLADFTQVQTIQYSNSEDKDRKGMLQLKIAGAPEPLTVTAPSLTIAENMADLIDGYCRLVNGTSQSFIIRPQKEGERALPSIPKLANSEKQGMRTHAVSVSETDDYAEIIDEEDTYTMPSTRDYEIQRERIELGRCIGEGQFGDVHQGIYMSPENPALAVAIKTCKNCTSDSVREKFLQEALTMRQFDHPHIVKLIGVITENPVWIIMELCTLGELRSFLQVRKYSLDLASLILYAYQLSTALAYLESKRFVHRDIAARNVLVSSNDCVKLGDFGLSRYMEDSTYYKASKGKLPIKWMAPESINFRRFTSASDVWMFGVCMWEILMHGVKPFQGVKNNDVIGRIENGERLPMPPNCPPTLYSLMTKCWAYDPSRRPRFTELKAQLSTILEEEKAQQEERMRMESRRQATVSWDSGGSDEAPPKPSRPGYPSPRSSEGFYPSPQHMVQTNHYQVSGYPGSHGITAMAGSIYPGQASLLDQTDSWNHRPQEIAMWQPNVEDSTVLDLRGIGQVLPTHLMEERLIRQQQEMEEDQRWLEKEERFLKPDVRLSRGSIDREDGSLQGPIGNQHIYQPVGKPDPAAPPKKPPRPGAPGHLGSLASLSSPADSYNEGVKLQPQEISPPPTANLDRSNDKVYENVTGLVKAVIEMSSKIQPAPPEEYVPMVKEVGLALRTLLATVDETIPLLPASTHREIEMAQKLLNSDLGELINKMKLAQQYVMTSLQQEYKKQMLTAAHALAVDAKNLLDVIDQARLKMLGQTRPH
Sequence of Proto-oncogene tyrosine-protein kinase Src (Homo sapiens) (P12931 2-536 limits assumed): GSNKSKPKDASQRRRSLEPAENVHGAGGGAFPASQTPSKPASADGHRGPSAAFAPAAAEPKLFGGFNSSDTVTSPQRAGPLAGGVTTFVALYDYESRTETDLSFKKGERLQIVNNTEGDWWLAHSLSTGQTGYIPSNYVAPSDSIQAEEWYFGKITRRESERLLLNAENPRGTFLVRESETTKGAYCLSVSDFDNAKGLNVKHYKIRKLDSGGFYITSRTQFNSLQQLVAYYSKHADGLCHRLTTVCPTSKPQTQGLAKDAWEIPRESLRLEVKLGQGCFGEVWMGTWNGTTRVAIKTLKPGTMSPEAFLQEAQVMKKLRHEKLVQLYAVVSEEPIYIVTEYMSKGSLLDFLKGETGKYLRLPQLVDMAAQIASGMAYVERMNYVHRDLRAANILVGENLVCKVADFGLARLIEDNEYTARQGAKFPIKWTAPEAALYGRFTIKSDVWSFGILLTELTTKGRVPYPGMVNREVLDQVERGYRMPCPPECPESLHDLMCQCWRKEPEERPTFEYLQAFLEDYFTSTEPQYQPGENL

**Q.** Which Activity [1] does the source give for COc1cc(/C=C/c2ccc(OC)cc2OC)cc(OC)c1 here?
**A.** inactive

**Q.** What about the inhibition [2] of the same compound?
**A.** Dose-Dependent Effect

**Q.** And the inhibition [3]?
**A.** Dose-Dependent Effect

**Q.** And the inhibition [4]?
**A.** inactive

**Q.** And the Activity [5]?
**A.** Dose-Dependent Effect

**Q.** And the inhibition [6]?
**A.** Active

**Q.** And the inhibition [7]?
**A.** Active

**Q.** And the inhibition [8]?
**A.** inactive

**Q.** And the inhibition [9]?
**A.** Dose-Dependent Effect

**Q.** And the Activity [10]?
**A.** Active

**Q.** What about the inhibition [11] of the same compound?
**A.** Active

**Q.** And the inhibition [12]?
**A.** Dose-Dependent Effect

**Q.** What about the inhibition [13] of the same compound?
**A.** inactive

**Q.** And the inhibition [14]?
**A.** inactive

**Q.** What about the inhibition [15] of the same compound?
**A.** inactive

**Q.** And the Activity [16]?
**A.** Active

**Q.** And the inhibition [17]?
**A.** Active

**Q.** And the inhibition [18]?
**A.** Dose-Dependent Effect

**Q.** What about the inhibition [19] of the same compound?
**A.** Active

**Q.** What about the inhibition [20] of the same compound?
**A.** inactive

**Q.** What about the inhibition [21] of the same compound?
**A.** Dose-Dependent Effect

**Q.** With COc1cc(Nc2nc(-c3nc(-c4ccccc4F)cs3)cs2)cc(OC)c1 as the compound, how does the CI [22] read?
**A.** 0.4

**Q.** What about the CI [23] of the same compound?
**A.** 0.11

**Q.** And the CI [24]?
**A.** 0.98

**Q.** And the inhibition [25]?
**A.** Active

**Q.** And the Activity [26]?
**A.** Active

**Q.** And the CI [27]?
**A.** 0.3

**Q.** What about the CI [28] of the same compound?
**A.** 0.68

**Q.** What about the Activity [29] of the same compound?
**A.** 62%

**Q.** And the Activity [30]?
**A.** Active

**Q.** What about the Activity [10] of the same compound?
**A.** Active

**Q.** And the CI [31]?
**A.** 0.09

**Q.** What about the CI [32] of the same compound?
**A.** 0.2

**Q.** And the CI [33]?
**A.** 0.31

**Q.** And the CI [34]?
**A.** 0.71

**Q.** What about the inhibition [35] of the same compound?
**A.** Dose-Dependent Effect

**Q.** And the inhibition [36]?
**A.** Dose-Dependent Effect

**Q.** What about the inhibition [37] of the same compound?
**A.** Active
